Experimental data published in patent US5171838A, “Leu3a binding peptides” (Kureha Kagaku Kogyo Kabushiki Kaisha, priority 1990, dated 1992).
Entries after “also recorded” stand apart in the source; their conditions may differ. Where a SMILES comes first, the peptide text is derived from it. Where no end group is shown, it is not given here. [ ]: non-standard residue; d: D form.

Target: Leu3a binding to CD4
Experiment: Leu3a competitive immunoassay (inhibition of biotinylated Leu3a binding to immobilized CD4 membrane fraction)
Parameters: species or system human
Conditions: for IC50 μg/well: D-amino acid-substituted CD4 (49-63); for IC50 μg/well / IC50 /µg/well: peptide amount per well inhibiting Leu3a binding by 50%; for inhibition of Leu3a binding to CD4 (in words): CD4 from MOLT4 cells; for IC50 /µg/well: CD4 fragment peptides, membrane fraction of MOLT4 or CCRF-CEM cells as CD4 source, unit of the source corrected
Protocol: Then, aliquots of solutions containing labeled Leu3a and the peptide to be tested are added. […] After a suitable period of incubation, the solid matrix is washed to remove unbound components and the labeled Leu3a bound is quantitated. In general, any of a number of conventionally labeled Leu3a preparations may be used, including radioactively labeled or enzyme-labeled Leu3a. However, a biotinylated Leu3a used in conjunction with an appropriate secondary reagent such as a complex of avidin-biotin-horseradish peroxidase is preferred. This secondary reagent specifically binds to the biotinylated Leu3a. A chromogenic substrate is added to the complex, enabling one to measure the amount of Leu3a bound as a function of absorbance.
Two million cells, suspended in 2 ml of 40 mM HEPES (4-(2-hydroxyethyl)-1-piperazine ethanesulfonic acid) buffer (pH 7.4) containing 1 mM EGTA (ethylene-bis-(oxyethylene-nitrilo)-tetraacetic acid), 1 mM PMSF (phenylmethylsulfonylfluoride), 1,000 KIU/ml aprotinin and 150 mM sodium chloride, were lysed by two (2) successive 15 second cycles of ultrasonication and centrifuged at 100×g for five (5) minutes. The supernatant was collected and centrifuged at 15,000×g for ten minutes. The precipitate was resuspended in 1 ml of 50 mM sodium bicarbonate buffer, ultrasonicated by three (3) successive 15 second cycles, and mixed with 1 ml of 50 mM sodium bicarbonate buffer to obtain the cellular membrane suspension. Then, 50 μl of the membrane suspension was added to each well of a 96 well microtiter plate. After overnight incubation at 4° C., the buffer was removed and the adsorbed membrane fraction was fixed by addition of 50 μl of 10 mM PBS (phosphate buffered saline) containing 0.2% glutaraldehyde. After three (3) minutes at room temperature, the glutaraldehyde buffer was removed and the plates were washed five times with PBS. Then, 350 μl of PBS containing 2% bovine serum albumin (BSA) was added to each well to block subsequently added proteins from binding non-specifically to the plastic. After blocking at room temperature for one (1) hour, the blocking buffer was removed and the plates were washed five times with 0.2% BSA solution in PBS (BPBS).
The following dilutions of each peptide in BPBS--were prepared: 10 μg/ml; 20 μg/ml; 40 μg/ml; 100 μg/ml; 200 μg/ml, 400 μg/ml; 1 mg/ml and 2 mg/ml. A 50 μl aliquot of each dilution of a selected peptide was added to a well of a microtiter plate, together with 25 μl of a solution containing 600 ng/ml biotin-conjugated Leu3a (Becton Dickinson Immunocytometry Systems) in BPBS so that each well contained either 0.5, 1, 2, 5, 10, 20, 50 or 100 μg of peptide in a total volume of 75 μl. After overnight incubation at 4° C., the reaction mixture was removed and the plates were washed eight times with BPBS containing 0.05% Tween 20.
A solution containing a complex of avidin DH (reagent A) and biotinylated horseradish peroxidase H (reagent B) was prepared by adding 90 μl of reagent A and 90 μl of reagent B (ABC Kit:Vector Laboratories, Inc.) to 5 ml of BPBS containing 0.05% Tween 20.
Then, 50 μl of the enzyme complex solution was added to each well, and the plates were incubated at room temperature for four (4) hours. The reaction buffer was removed and the plates were washed eight times with 20 mM imidazole buffered saline containing 0.02% Tween 20. Equal volumes of substrate solution A (ABTS; 2,2'-azino-di[3-ethyl-benzthiazoline sulfonate]) and substrate solution B (hydrogen peroxide) (Hybri-Clonal™ EIA Screening Kit: Kirkegaard & Perry Laboratories, Inc.) were mixed, and 100 μl of the substrate solution mixture was added to each well. After incubation at room temperature for one (1) hour, absorbance at 405 nm was measured by microplate reader model MPR-A4 (Tosoh Co., Ltd.).
Leu3a binding, as measured by absorbance, was calculated and plotted against peptide concentration to obtain a competitive inhibition curve.

Compound | IC50 μg/well [μg/well] | inhibition of Leu3a binding to CD4 (in words) | IC50 /µg/well [µg/well]
CC(C)C[C@H](NC(=O)[C@H](CO)NC(=O)[C@H](CCCNC(=N)N)NC(=O)[C@H](CCCNC(=N)N)NC(=O)[C@H](CO)NC(=O)[C@H](CC(=O)O)NC(=O)[C@@H](C)NC(=O)[C@H](CCCNC(=N)N)NC(=O)[C@H](CC(=O)O)NC(=O)[C@H](CC(N)=O)NC(=O)[C@H](CC(C)C)NC(=O)[C@@H](CCCCN)NC(=O)[C@@H](N)CO)C(=O)N[C@@H](Cc1c[nH]c2ccccc12)C(=O)N[C@@H](CC(=O)O)C(=O)O [[D-Lys^50,D-Ala^55]-CD4(49-63)] (H-S[dK]LNDR[dA]DSRRSLWD-OH) | 36 |  | 
CC(C)C[C@H](NC(=O)[C@H](CCCCN)NC(=O)[C@@H](N)CO)C(=O)N[C@@H](CC(N)=O)C(=O)N[C@@H](CC(=O)O)C(=O)N[C@@H](CCCNC(=N)N)C(=O)N[C@H](C)C(=O)N[C@@H](CC(=O)O)C(=O)N[C@@H](CO)C(=O)N[C@@H](CCCNC(=N)N)C(=O)N[C@H](CCCNC(=N)N)C(=O)N[C@@H](CO)C(=O)N[C@@H](CC(C)C)C(=O)N[C@@H](Cc1c[nH]c2ccccc12)C(=O)N[C@@H](CC(=O)O)C(=O)O [[D-Ala^55,D-Arg^59]-CD4(49-63)] (H-SKLNDR[dA]DSR[dR]SLWD-OH) | 23 |  | 
CC(C)C[C@H](NC(=O)[C@H](CO)NC(=O)[C@@H](CCCNC(=N)N)NC(=O)[C@H](CCCNC(=N)N)NC(=O)[C@H](CO)NC(=O)[C@H](CC(=O)O)NC(=O)[C@@H](C)NC(=O)[C@H](CCCNC(=N)N)NC(=O)[C@H](CC(=O)O)NC(=O)[C@H](CC(N)=O)NC(=O)[C@H](CC(C)C)NC(=O)[C@@H](CCCCN)NC(=O)[C@@H](N)CO)C(=O)N[C@@H](Cc1c[nH]c2ccccc12)C(=O)N[C@@H](CC(=O)O)C(=O)O [[D-Lys^50,D-Ala^55,D-Arg^59]-CD4(49-63)] (H-S[dK]LNDR[dA]DSR[dR]SLWD-OH) | 25 | exhibited inhibitory activity | 
CC(C)C[C@H](NC(=O)[C@H](CO)NC(=O)[C@H](CCCNC(=N)N)NC(=O)[C@H](CCCNC(=N)N)NC(=O)[C@@H](CO)NC(=O)[C@H](CC(=O)O)NC(=O)[C@@H](C)NC(=O)[C@H](CCCNC(=N)N)NC(=O)[C@H](CC(=O)O)NC(=O)[C@H](CC(N)=O)NC(=O)[C@H](CC(C)C)NC(=O)[C@H](CCCCN)NC(=O)[C@@H](N)CO)C(=O)N[C@@H](Cc1c[nH]c2ccccc12)C(=O)N[C@@H](CC(=O)O)C(=O)O [[D-Ala^55,D-Ser^57]-CD4(49-63)] (H-SKLNDR[dA]D[dS]RRSLWD-OH) | 10 |  | 
KNSNQIKILGNQGSFLTKG [CD4 (29-47)] |  |  | 500
CC(C)C[C@H](NC(=O)[C@H](CO)NC(=O)[C@H](CCCNC(=N)N)NC(=O)[C@H](CCCNC(=N)N)NC(=O)[C@H](CO)NC(=O)[C@H](CC(=O)O)NC(=O)[C@@H](C)NC(=O)[C@H](CCCNC(=N)N)NC(=O)[C@H](CC(=O)O)NC(=O)[C@H](CC(N)=O)NC(=O)[C@H](CC(C)C)NC(=O)[C@H](CCCCN)NC(=O)[C@@H](N)CO)C(=O)N[C@@H](Cc1c[nH]c2ccccc12)C(=O)N[C@@H](CC(=O)O)C(=O)O [[D-Ala^55]-CD4(49-63)] (H-SKLNDR[dA]DSRRSLWD-OH) | 32 |  | 
KLNDRADSRRSLWD [CD4 (50-63)] |  | very weak inhibiting activity | > 500
CC(C)C[C@H](NC(=O)[C@@H](CCCCN)NC(=O)[C@@H](N)CO)C(=O)N[C@@H](CC(N)=O)C(=O)N[C@@H](CC(=O)O)C(=O)N[C@@H](CCCNC(=N)N)C(=O)N[C@H](C)C(=O)N[C@@H](CC(=O)O)C(=O)N[C@@H](CO)C(=O)N[C@@H](CCCNC(=N)N)C(=O)N[C@@H](CCCNC(=N)N)C(=O)N[C@@H](CO)C(=O)N[C@H](CC(C)C)C(=O)N[C@@H](Cc1c[nH]c2ccccc12)C(=O)N[C@@H](CC(=O)O)C(=O)O [[D-Lys^50,D-Ala^55,D-Leu^61]-CD4(49-63)] (H-S[dK]LNDR[dA]DSRRS[dL]WD-OH) | 22 |  | 
SKLNDRADSRRSLW [CD4 (49-62)] |  | very weak inhibiting activity | > 500
CC(C)C[C@H](NC(=O)[C@H](CO)NC(=O)[C@H](CCCNC(=N)N)NC(=O)[C@H](CCCNC(=N)N)NC(=O)[C@H](CO)NC(=O)[C@H](CC(=O)O)NC(=O)[C@@H](C)NC(=O)[C@H](CCCNC(=N)N)NC(=O)[C@H](CC(=O)O)NC(=O)[C@@H](CC(N)=O)NC(=O)[C@H](CC(C)C)NC(=O)[C@H](CCCCN)NC(=O)[C@@H](N)CO)C(=O)N[C@@H](Cc1c[nH]c2ccccc12)C(=O)N[C@@H](CC(=O)O)C(=O)O [[D-Asn^52,D-Ala^55]-CD4(49-63)] (H-SKL[dN]DR[dA]DSRRSLWD-OH) | 60 |  | 
CC(C)C[C@H](NC(=O)[C@H](CO)NC(=O)[C@H](CCCNC(=N)N)NC(=O)[C@H](CCCNC(=N)N)NC(=O)[C@H](CO)NC(=O)[C@@H](CC(=O)O)NC(=O)[C@H](C)NC(=O)[C@H](CCCNC(=N)N)NC(=O)[C@H](CC(=O)O)NC(=O)[C@H](CC(N)=O)NC(=O)[C@H](CC(C)C)NC(=O)[C@H](CCCCN)NC(=O)[C@@H](N)CO)C(=O)N[C@@H](Cc1c[nH]c2ccccc12)C(=O)N[C@@H](CC(=O)O)C(=O)O [[D-Asp^56]-CD4(49-63)] (H-SKLNDRA[dD]SRRSLWD-OH) | 56 |  | 
CC(C)C[C@H](NC(=O)[C@H](CO)NC(=O)[C@H](CCCNC(=N)N)NC(=O)[C@@H](CCCNC(=N)N)NC(=O)[C@H](CO)NC(=O)[C@H](CC(=O)O)NC(=O)[C@@H](C)NC(=O)[C@H](CCCNC(=N)N)NC(=O)[C@H](CC(=O)O)NC(=O)[C@H](CC(N)=O)NC(=O)[C@H](CC(C)C)NC(=O)[C@H](CCCCN)NC(=O)[C@@H](N)CO)C(=O)N[C@@H](Cc1c[nH]c2ccccc12)C(=O)N[C@@H](CC(=O)O)C(=O)O [[D-Ala^55,D-Arg^58]-CD4(49-63)] (H-SKLNDR[dA]DS[dR]RSLWD-OH) | 36 |  | 
SKLNDRADSRRSLWD [CD4 (49-63), ser-lys-leu-asn-asp-arg-ala-asp-ser-arg-arg-ser-leu-trp-asp] |  | strongly inhibited; also recorded: exceptionally strong inhibitory activity | 10
